In one assay the test system is human neutrophils. As to the kind of experiment: NETosis of PMA-activated primary human neutrophils (ATAC-see / ATAC-seq). Type of assay: cell-based. How it is done: Human neutrophils were isolated from healthy donor's blood following as described under a Stanford University IRB-approved protocol^23. In brief, 7 ml of heparinized blood was layered on 7 ml Histopaque 1119 (11191-100ML, Sigma Aldrich) in a 15 ml Falcon tube, and the mixture was spun 20 min at 800× g at room temperature. The interphase (lymphocytes and monocytes) was discarded and the granulocyte-rich layer of Histopaque 1119 (diffuse, red phase above RBC pellet) was collected in a new tube. 5 ml of cells were washed with 10 ml of medium (HBSS+), and spun 10 min at 200× g at room temperature. The cells were resuspended in 3 ml DPBS with 0.5% human serum albumin (101-15-50, Lee BioSolutions), and the cell suspension was layered on 10 ml of a discontinuous Percoll gradient (85% to 65% Percoll) and spun 20 min at 800×g at room temperature. The interphase between 70% and 75% Percoll layers were collected in a new 15 ml tube. The tube was added with DPBS with 0.5% human serum albumin up to 15 ml and spun for 10 min at 200× g at room temperature. The cell pellet was resuspended in RPMI-HEPES (10 mM) at 1.5×10^6 cells per ml for neutrophil activation.
Human neutrophils were stimulated by Phorbol myristate acetate (PMA) as described^23. Briefly, the purified neutrophils were suspended in 3 ml RPMI 1640 with final concentration of 1.5×10^6 per ml in loosen cap 15 ml falcon tube, and incubated in cell culture CO2 incubator (5% CO2, 37° C.) with final concentration of 30 nM PMA for 1 h, 3 h, and 5 h respectively. After 2 h of simulation, protease inhibitor cocktail was added at a 1:200 dilution to both control and simulated tubes. At the respective time points, neutrophils were fixed with 1% formaldehyde for 10 min at room temperature, and fixed neutrophil cells spun down on the glass slide with cytospin 1000 rpm 5 min at room temperature for ATAC-see or immuno-staining.
The PAD4 inhibition was performed as previously described^25.
80% confluent Human HT1080 cells (30-50,000 cells) grown in 8 well chamber slides were fixed with 1% formaldehyde (Sigma, USA) for 10 min and quenched with 0.125 M glycine for 5 min at room temperature. After fixation, slides were put in PBS at 4° C. […] The 50 μl transposase reaction solution was added onto the slide, and the cells on slide were incubated at 37° C. for 30 min. For the imaging and sequencing, slides were mounted using Vectorshield and images were taken with a Zeiss LSM 700. After imaging, the coverslip was removed and cells were lysed with 50 μl of 50 mM Tris-Cl, 1 mM EDTA, 1% SDS, 0.2 M NaCl 5 min on slide at room temperature. The cell lysis was carefully transferred to 1.5 ml eppendorf tube. The glass slide was washed with 50 μl of the same buffer another 3 times and washing solutions were transferred to the same tube carefully. […]

The target of the next assay is Tn5 (Escherichia coli, UniProt Q46731, E54K/L372P). Particulars: 50 mM EDTA, HT1080 cells.

Consider three molecules from patent publication US11680253B2, “Transposase-mediated imaging of the accessible genome” (The Board of Trustees of the Leland Stanford Junior …, priority 2016, dated 2023).

Structures are written as SMILES.

Method for Tn5: HT1080 cells and HeLa cells were grown on secureSlip cell culture system (0515073, GRACE BIO-LABS) until 80-90% confluent and fixed with 1% formaldehyde (Sigma-Aldrich) for 10 min at room temperature. GM12878 cells were fixed with 1% formaldehyde (Sigma) 10 min at room temperature and centrifuged on the glass slide with Cytospin, 1000 rpm for 5 min, 30-50,000 cells per slide.
ATAC-see: After fixation, the cells (either growing on slide or centrifuged on glass slide with cytospin) were permeabilized with lysis buffer (10 mM Tris-Cl, pH 7.4, 10 mM NaCl, 3 mM MgCl2, 0.01% Igepal CA-630) for 10 min at room temperature. After the permeabilization, the slides were rinsed in PBS twice, and put in humid chamber box at 37° C. The transposase mixture solution (25 μl 2× TD buffer, final concentration of 100 nM Tn5-ATTO-59ON, adding dH2O up to 50 μl) was added on the slide and incubated for 30 min at 37° C. […] After washing, slides were mounted using Vectashield with DAPI (H-1200, Vector labs) for imaging with Leica SP8 or Zeiss 700 or for additional co-staining with Lamin B1 or mitochondria (see the materials and methods above).

For the molecule `NC(=O)[C@H](CCCN=C(N)CCl)NC(=O)c1ccccc1` [Cl-amidine], the NETosis result in the assay on human neutrophils (200 μM Cl-amidine 30 min before PMA stimulation) is “inhibited”. In addition, the “release of free DNA from mononucleosomes” value in the assay on human neutrophils (PAD4i-treated, after 5 hrs of neutrophil activation) was “fail to release free DNA from mononucleosomes”.
Take `O=C(O)CN(CCN(CC(=O)O)CC(=O)O)CC(=O)O` [EDTA]: on Tn5, the “ATAC-see signal, % of control” value was 2.69%±0.04.
On to `CCCCCCCCCCCCCC(=O)O[C@@H]1[C@@H](C)[C@@]2(O)[C@@H](C=C(CO)C[C@]3(O)C(=O)C(C)=C[C@@H]23)[C@@H]2C(C)(C)[C@]12OC(C)=O` [PMA, Phorbol myristate acetate], for which the “neutrophils that have released their chromatin into the extracellular space” value in the assay on human neutrophils (30 nM PMA, after 3 hrs of stimulation) turned out to be 49.7%. For the same molecule, in the assay with human neutrophils (30 nM PMA, after 5 hrs of stimulation), the “neutrophils that have released NETs” value is 59.7%.
